One data set has as its system mesenteric artery. Nature of the data set: relaxing activity against contraction by KCl, extracted rabbit blood vessels (mesenteric artery). The conditions noted are these: Oryctolagus cuniculus. The protocol: (§1) (1) Activity on the extracted blood vessels of a rabbit
(§2) A rabbit with a body weight of 2 to 3 kg was bled to death, and the thoracic aorta, mesenteric artery, renal artery, basilar artery and portal vein were extracted. Helical stripe specimens of these blood vessels were prepared. The specimens were suspended in a Magnus vessel, and the relaxing activity of the compound A against contraction of the specimens by KCl was examined. […] It is seen therefore that the compound A differs in activity from nitroglycerin having a strong relaxing activity on the veins, and has a strong relaxing activity on arteries, for example the coronary artery, the renal artery, etc.
(§3) The inhibiting activity on human platelet aggregation and the relaxing activity on mesenteric artery (the artery being extracted from rabbits) of compounds B to G of the invention were also examined in the same way as in I, (1) and (2). The mesenteric artery relaxing activity was shown in terms of the concentration (μM) of each compound which was required to cause 50% of the maximum relaxation, and the platelet aggregation inhibiting activity, in terms of the concentration (μM) of each compound which was required to inhibit aggregation to an extent of 50%. The platelet aggregation inhibiting activities of these compounds agreed relatively well with their artery relaxing activities

A further data set deals with human platelet. Put plainly: inhibition of human platelet aggregation in PRP. It is filed as cell-based.
Source text: (2) Activity on human platelet
PRP (platelet-rich plasma) was centrifugally separated from human blood to which sodium citrate had been added, and used as a sample. Collagen, adrenaline and adenosine diphosphate were used as substances causing platelet aggregation. The inhibitory effect of the compound A against platelet aggregation included by these substances was examined.
as §3

The next data set concerns portal vein. Put plainly: relaxing activity against contraction by KCl, extracted rabbit blood vessels (portal vein). The note with it: Oryctolagus cuniculus, helical stripe specimens, read-out: ED50 (relaxing activity against KCl contraction). Here is the method:
as §1, §2

Another data set deals with basilar artery. Nature of the data set: relaxing activity against contraction by KCl, extracted rabbit blood vessels (basilar artery). The conditions noted are these: Oryctolagus cuniculus, helical stripe specimens, read-out: ED50 (relaxing activity against KCl contraction). Here is the method:
as §1, §2

A further data set relates to coronary artery. Nature of the data set: relaxing activity against contraction by KCl, extracted rabbit blood vessels (coronary artery). The conditions noted are these: Oryctolagus cuniculus, helical stripe specimens, read-out: ED50 (relaxing activity against KCl contraction). The protocol:
as §1, §2

The next data set has as its system thoracic aorta. Put plainly: relaxing activity against contraction by KCl, extracted rabbit blood vessels (thoracic aorta). The conditions noted are these: Oryctolagus cuniculus, helical stripe specimens, read-out: ED50 (relaxing activity against KCl contraction). The protocol:
as §1, §2

A further data set relates to renal artery. Nature of the data set: relaxing activity against contraction by KCl, extracted rabbit blood vessels (renal artery). The conditions noted are these: Oryctolagus cuniculus, helical stripe specimens, read-out: ED50 (relaxing activity against KCl contraction). Here is the method:
as §1, §2

A short description of data set [1]: activity on the respiration, blood pressure, heart rate and blood flow rate of a dog. Format: in vivo, dog (male Beagle). The conditions noted are these: intravenous, pentobarbital anesthesia. The protocol: (3) Activity on the respiration, blood pressure, heart rate and blood flow rate of a dog.
The test was carried out under pentobarbital anesthesia using a male Beagle dog having a body weight of about 10 kg. The respiration was measured by means of a pneumotachograph; the blood pressure, by inserting a cannula into the femoral artery; the heart rate, by a cardiotachometer; and the rate of blood flow, by means of an electromagnetic blood flow meter by mounting a measuring probe on the vertebral artery and the femoral artery.
The present compound A was intraveneously administered as a solution in physiological saline.

Another data set in a line: acute toxicity test. The note with it: mouse, in vivo. The protocol: An acute toxicity test was carried out by using male dd-strain mice (body weight 16 to 20 g).
Setting [2] is: Table 1, artery extracted from rabbits, same way as in I (1), read-out: Mesenteric artery relaxing activity (concentration required to cause 50% of the maximum relaxation).
[3] abbreviates: Table 1, human platelets, inducing substance not stated, read-out: Platelet aggregation inhibiting activity (concentration required to inhibit aggregation to an extent of 50%).

Where two headings read alike, the source gives them in different places.

This note sets out measurements from patent publication US4421754A, “Syndonimine derivatives, process for production thereof, and use thereof” (Hidaka; Hiroyoshi, priority 1981, dated 1983).

As to `N=c1c[n+](N2CCN(CCCC(=O)c3ccccc3)CC2)[n-]o1` [compound C, 3-[4-(3-benzoylpropyl)piperazin-1-yl]sydnonimine], in the data set with mesenteric artery (setting [2]), the EC50 came to 2300 nM. Moreover, in the data set on human platelet (setting [3]), the IC50 turned out to be 5400 nM.
In the case of `N=c1c[n+](N2CCN(CC(=O)c3ccccc3)CC2)[n-]o1` [compound B, 3-[4-(benzoylmethyl)piperazin-1-yl]sydnonimine], the EC50 in the data set with mesenteric artery (setting [2]) was 160 nM. The IC50 in the data set on human platelet (setting [3]) was determined as 140 nM.
As to `N=c1c[n+](N2CCN(CCCCCCCCC(=O)c3ccccc3)CC2)[n-]o1` [compound F, 3-[4-(8-benzoyloctyl)piperazin-1-yl]sydnonimine], the EC50 in the data set with mesenteric artery (setting [2]) is 58 nM. The IC50 with human platelet (setting [3]) is 28 nM.
As for `CC(C)CC(CCCN1CCN([n+]2cc(=N)o[n-]2)CC1)C(=O)c1ccccc1` (centres unmarked) [compound G, 3-[4-(4-benzoyl-6-methylheptyl)piperazin-1-yl]-sydnonimine], in the data set on mesenteric artery (setting [2]), the EC50 was determined as 1300 nM. In the data set on human platelet (setting [3]), the IC50 turned out to be 11000 nM.
`N=c1c[n+](N2CCN(CCCCC(=O)c3ccccc3)CC2)[n-]o1` [compound A, 3-[4-(4-Benzoylbutyl)piperazin-1-yl]sydnonimine]: the EC50 in the data set with portal vein is 4000 nM; in the data set on basilar artery it was 1300 nM; with coronary artery, 200 nM; in the data set with mesenteric artery (mesenteric artery, KCl contraction, helical stripe specimens, read-out: ED50 (relaxing activity against KCl contraction)) it was 200 nM; in the data set with thoracic aorta it was 200 nM; in the data set with renal artery, 100 nM. Besides, the IC50 worked out at 1500 nM in the data set on human platelet (induced by adenosine diphosphate, human PRP, read-out: concentration which achieved a 50% inhibition of the platelet aggregation); 800 nM in the data set with human platelet (induced by adrenaline, human PRP, read-out: concentration which achieved a 50% inhibition of the platelet aggregation); 3400 nM with human platelet (induced by collagen, human PRP, read-out: concentration which achieved a 50% inhibition of the platelet aggregation). The “effect on respiration, blood pressure, heart rate and blood flow” value in data set [1] (10 μg/kg) is reported as “No appreciable effect was seen”. Besides, the blood pressure result in data set [1] (100 μg/kg) was “slight degrees of a fall in blood pressure”; in [1] (500 μg/kg) it was “a transient fall in blood pressure and a subsequent lasting fall in blood pressure”. Also, in [1] (100 μg/kg), the “force of the pulse” value is listed as “a decrease in the force of the pulse”. In addition, in [1] (vertebral artery and femoral artery), the “rate of blood flow” value was “tended to increase at the central part as compared with the peripheral part”. Besides, the LD50 (as a rule, the dose expected to kill half of the subjects tested) came to 350 mg/kg in the data set “acute toxicity test” (sc, subcutaneous administration); 91 mg/kg in the data set “acute toxicity test” (intravenous administration); 750 mg/kg in the data set “acute toxicity test” (oral administration).
On to `N=c1c[n+](N2CCN(CCCCCC(=O)c3ccccc3)CC2)[n-]o1` [compound D, 3-[4-(5-benzoylpentyl)piperazin-1-yl]sydnonimine], for which, in the data set on mesenteric artery (setting [2]), the EC50 stood at 3000 nM. In the data set with human platelet (setting [3]), the IC50 was found to be 6300 nM.
`N=c1c[n+](N2CCN(CCCCCCC(=O)c3ccccc3)CC2)[n-]o1` [compound E, 3-[4-(6-benzoylhexyl)piperazin-1-yl]sydnonimine]: the EC50 in the data set on mesenteric artery (setting [2]) came out at 120 nM. Also, in the data set on human platelet (setting [3]), the IC50 was found to be 940 nM.
